Laboratory results from ChEMBL document CHEMBL5137080, “Discovery of Novel 7-Hydroxy-5-oxo-4,5-dihydrothieno[3,2-b]pyridine-6-carboxamide Derivatives with Potent and Selective Antifungal Activity against Cryptococcus Species” (J Med Chem, 2022).
≈ marks a conversion by molar mass, not a printed value.

How the values were obtained:
[1] = test system: Candida albicans; assay: Antifungal activity against Candida albicans SC5314 assessed as fungal growth inhibition incubated for 48 hrs by broth microdilution method; type: functional
[2] = test system: Aspergillus fumigatus; assay: Antifungal activity against Aspergillus fumigatus 7544 assessed as fungal growth inhibition incubated for 48 hrs by broth microdilution method; type: functional
[3] = test system: Cryptococcus neoformans; assay: Antifungal activity against Cryptococcus neoformans H99 assessed as fungal growth inhibition incubated for 72 hrs by broth microdilution method; type: functional
[4] = Cytotoxicity against human HUVEC cells assessed as inhibition on cell growth incubated for 24 hrs by CCK-8 assay; type: toxicity, cell-based

Structure (SMILES) | MIC [1] | MIC [2] | MIC [3] | IC50 at 24 h [4]
Cc1ccccc1CNC(=O)c1c(O)c2sccc2n(Cc2ccccc2)c1=O | > 64 µg/mL | > 64 µg/mL | 2 µg/mL (≈ 4.94 µM) | 
O=C(NN1CCOCC1)c1c(O)c2sccc2n(Cc2ccccc2)c1=O | > 64 µg/mL | > 64 µg/mL | > 64 µg/mL | > 64 µg/mL
O=C(NCCN1CCOCC1)c1c(O)c2sccc2n(Cc2ccccc2)c1=O | 32 µg/mL (≈ 77.4 µM) | 64 µg/mL (≈ 155 µM) | 8 µg/mL (≈ 19.3 µM) | 
O=C(NCCO)c1c(O)c2sccc2n(Cc2ccccc2)c1=O | > 64 µg/mL | 32 µg/mL (≈ 92.9 µM) | 8 µg/mL (≈ 23.2 µM) | 64 µg/mL (≈ 186 µM)
O=C(NCc1cccc(Cl)c1)c1c(O)c2sccc2n(Cc2ccccc2)c1=O | > 64 µg/mL | > 64 µg/mL | 2 µg/mL (≈ 4.71 µM) | 
CCC(C)NC(=O)c1c(O)c2sccc2n(Cc2ccccc2)c1=O (stereo not drawn) | > 64 µg/mL | 64 µg/mL (≈ 180 µM) | 4 µg/mL (≈ 11.2 µM) | 
CCCNC(=O)c1c(O)c2sccc2n(Cc2ccccc2)c1=O | > 64 µg/mL | > 64 µg/mL | 2 µg/mL (≈ 5.84 µM) | > 64 µg/mL
Cc1ccc(CNC(=O)c2c(O)c3sccc3n(Cc3ccccc3)c2=O)cc1C | > 64 µg/mL | > 64 µg/mL | 2 µg/mL (≈ 4.78 µM) | 
O=C(NCc1ccc(Cl)cc1)c1c(O)c2sccc2n(Cc2ccccc2)c1=O | > 64 µg/mL | > 64 µg/mL | 1 µg/mL (≈ 2.35 µM) | 
O=C(NCCc1ccccc1)c1c(O)c2sccc2n(Cc2ccccc2)c1=O | > 64 µg/mL | > 64 µg/mL | 4 µg/mL (≈ 9.89 µM) | 
O=C(NCc1cccs1)c1c(O)c2sccc2n(Cc2ccccc2)c1=O | > 64 µg/mL | > 64 µg/mL | 2 µg/mL (≈ 5.04 µM) | 
O=C(NCc1cc(F)cc(F)c1)c1c(O)c2sccc2n(Cc2ccccc2)c1=O | > 64 µg/mL | > 64 µg/mL | 2 µg/mL (≈ 4.69 µM) | 
O=C(NC1CCCC1)c1c(O)c2sccc2n(Cc2ccccc2)c1=O | > 64 µg/mL | > 64 µg/mL | 4 µg/mL (≈ 10.9 µM) | > 64 µg/mL
O=C(NCC1CC1)c1c(O)c2sccc2n(Cc2ccccc2)c1=O | > 64 µg/mL | > 64 µg/mL | 1 µg/mL (≈ 2.82 µM) | 
CN(C)c1ccc(CNC(=O)c2c(O)c3sccc3n(Cc3ccccc3)c2=O)cc1 | > 64 µg/mL | > 64 µg/mL | 4 µg/mL (≈ 9.23 µM) | 
O=C(NCc1ccccc1F)c1c(O)c2sccc2n(Cc2ccccc2)c1=O | > 64 µg/mL | > 64 µg/mL | 2 µg/mL (≈ 4.9 µM) | 
COc1ccc(CNC(=O)c2c(O)c3sccc3n(Cc3ccccc3)c2=O)cc1 | > 64 µg/mL | > 64 µg/mL | 2 µg/mL (≈ 4.76 µM) | 
CC(NC(=O)c1c(O)c2sccc2n(Cc2ccccc2)c1=O)c1ccc(F)cc1 (stereo not drawn) | > 64 µg/mL | > 64 µg/mL | 2 µg/mL (≈ 4.73 µM) | 
O=C(NN1CCCCC1)c1c(O)c2sccc2n(Cc2ccccc2)c1=O | > 64 µg/mL | > 64 µg/mL | 16 µg/mL (≈ 41.7 µM) | > 64 µg/mL
CCOCCNC(=O)c1c(O)c2sccc2n(Cc2ccccc2)c1=O | > 64 µg/mL | 16 µg/mL (≈ 43 µM) | 0.5 µg/mL (≈ 1.34 µM) | 8 µg/mL (≈ 21.5 µM)
C#CCNC(=O)c1c(O)c2sccc2n(Cc2ccccc2)c1=O | > 64 µg/mL | > 64 µg/mL | 16 µg/mL (≈ 47.3 µM) | > 64 µg/mL
O=C(Nc1ccccc1)c1c(O)c2sccc2n(Cc2ccccc2)c1=O | > 64 µg/mL | > 64 µg/mL | > 64 µg/mL | 
